Experimental data as given in US20240269135A1, “METHODS OF TREATING BREAST CANCER” (ASTRAZENECA AB, priority 2021, published 2024).

Columns and labels:
[1] = OlympiA safety analysis: adverse events, blood transfusions; assay type: in vivo
Protocol: Efficacy analyses were based on the intention-to-treat (ITT) population. Survival functions were estimated by Kaplan-Meier method. The stratified Cox proportional-hazards model was used to estimate the hazard ratio and confidence intervals, the comparison of survival between treatment arms was tested by stratified log-rank test. […] Safety was assessed in the population who received at least one dose of study medication.
Adverse events of special interest included pneumonitis, radiation pneumonitis, myelodysplastic syndrome (MDS)/AML, and new primary malignancy other than AML/MDS.

[2] = test system: metastatic HER2-negative breast cancer patients with gBRCA-P/LP variants; settings: 45% received capecitabine as comparator; cited from earlier work
[3] = olaparib group, safety analysis set
[4] = safety analysis set, olaparib n=911
[5] = safety analysis set, olaparib n=911, listed as olaparib
[6] = safety analysis set, 300 mg bd, N = 911
[7] = treatment month: >=1-2 months, 300 mg bd, N = 911
[8] = treatment month: >=2-3 months, 300 mg bd, N = 911
[9] = treatment month: >=3-4 months, 300 mg bd, N = 911
[10] = treatment month: >=4-5 months, 300 mg bd, N = 911
[11] = treatment month: >=5-6 months, 300 mg bd, N = 911
[12] = treatment month: >=6-7 months, 300 mg bd, N = 911
[13] = treatment month: >=7-8 months, 300 mg bd, N = 911
[14] = treatment month: >=8-9 months, 300 mg bd, N = 911
[15] = treatment month: >=9-10 months, 300 mg bd, N = 911
[16] = treatment month: >=10-11 months, 300 mg bd, N = 911
[17] = treatment month: >=11 months, 300 mg bd, N = 911
[18] = treatment month: Up to month 1, 300 mg bd, N = 911

Structure (SMILES): O=C(c1cc(Cc2n[nH]c(=O)c3ccccc23)ccc1F)N1CCN(C(=O)C2CC2)CC1 [Olaparib, 4-[(3-{[4-(cyclopropane-carbonyl)piperazine-1-yl]carbonyl}-4-fluorophenyl)methyl]-2H-phthalazin-1-one]
- anemia leading to discontinuation of study drug [1, 3]: 1.8%
- fatigue leading to discontinuation of study drug [1, 3]: 1.3%
- nausea leading to discontinuation of study drug [1, 3]: 2.0%
- neutrophil count decreased leading to discontinuation of study drug [1, 3]: 1%
- Number of patients with only 1 transfusion ([1]; safety analysis set, olaparib N=911): 4.1%
- Patients with at least one blood transfusion ([1]; safety analysis set, olaparib N=911, up to 30 days after last dose): 5.8%
- Neutrophil count decreased (neutropenia), Grade ≥3 [1, 4]: (4.8) %
- Neutrophil count decreased, Grade ≥3 [1, 4]: 44 no.
- White blood cell count decreased (leukopenia), Grade ≥3 [1, 4]: (3.0) %
- White blood cell count decreased, Grade ≥3 [1, 4]: 27 no.
- Anemia, Grade ≥3 [1, 5]: 8.7%
- Fatigue, Grade ≥3 [1, 5]: 1.8%
- Neutrophil count decreased (neutropenia), Grade ≥3 [1, 5]: 4.8%
- White blood cell count decreased (leukopenia), Grade ≥3 [1, 5]: 3.0%
- AE leading to permanent discontinuation of treatment: Abdominal pain upper [1, 6]: 1 (0.1) no. of patients (%)
- AE leading to permanent discontinuation of treatment: Anaemia [1, 6]: 16 (1.8) no. of patients (%)
- AE leading to permanent discontinuation of treatment: Arthralgia [1, 6]: 1 (0.1) no. of patients (%)
- AE leading to permanent discontinuation of treatment: Breast cancer [1, 6]: 1 (0.1) no. of patients (%)
- AE leading to permanent discontinuation of treatment: Decreased appetite [1, 6]: 2 (0.2) no. of patients (%)
- AE leading to permanent discontinuation of treatment: Diarrhoea [1, 6]: 3 (0.3) no. of patients (%)
- AE leading to permanent discontinuation of treatment: Dizziness [1, 6]: 2 (0.2) no. of patients (%)
- AE leading to permanent discontinuation of treatment: Drug hypersensitivity [1, 6]: 3 (0.3) no. of patients (%)
- AE leading to permanent discontinuation of treatment: Fatigue [1, 6]: 12 (1.3) no. of patients (%)
- AE leading to permanent discontinuation of treatment: Headache [1, 6]: 7 (0.8) no. of patients (%)
- AE leading to permanent discontinuation of treatment: Nausea [1, 6]: 18 (2.0) no. of patients (%)
- AE leading to permanent discontinuation of treatment: Neutrophil count decreased [1, 6]: 9 (1.0) no. of patients (%)
- AE leading to permanent discontinuation of treatment: Pruritus [1, 6]: 3 (0.3) no. of patients (%)
- AE leading to permanent discontinuation of treatment: Vomiting [1, 6]: 7 (0.8) no. of patients (%)
- AE leading to permanent discontinuation of treatment: White blood cell count decreased [1, 6]: 6 (0.7) no. of patients (%)
- Any AE leading to permanent discontinuation [1, 6]: 90 (9.9) no. of patients (%)
- lymphopenia, grade 3 or higher ([1]; safety analysis, olaparib-group): 1.2%
- Blood transfusions over time, Total no. of transfusions [1, 7]: 2
- Blood transfusions over time, no. of patients (%) [1, 7]: 2 (0.2) no. of patients (%)
- Blood transfusions over time, Total no. of transfusions [1, 8]: 22
- Blood transfusions over time, no. of patients (%) [1, 8]: 21 (2.3) no. of patients (%)
- Blood transfusions over time, Total no. of transfusions [1, 9]: 10
- Blood transfusions over time, no. of patients (%) [1, 9]: 8 (0.9) no. of patients (%)
- Blood transfusions over time, Total no. of transfusions [1, 10]: 5
- Blood transfusions over time, no. of patients (%) [1, 10]: 5 (0.5) no. of patients (%)
- Blood transfusions over time, Total no. of transfusions [1, 11]: 8
- Blood transfusions over time, no. of patients (%) [1, 11]: 7 (0.8) no. of patients (%)
- Blood transfusions over time, Total no. of transfusions [1, 12]: 4
- Blood transfusions over time, no. of patients (%) [1, 12]: 4 (0.4) no. of patients (%)
- Blood transfusions over time, Total no. of transfusions [1, 13]: 8
- Blood transfusions over time, no. of patients (%) [1, 13]: 8 (0.9) no. of patients (%)
- Blood transfusions over time, Total no. of transfusions [1, 14]: 3
- Blood transfusions over time, no. of patients (%) [1, 14]: 3 (0.3) no. of patients (%)
- Blood transfusions over time, Total no. of transfusions [1, 15]: 2
- Blood transfusions over time, no. of patients (%) [1, 15]: 2 (0.2) no. of patients (%)
- Blood transfusions over time, Total no. of transfusions [1, 16]: 3
- Blood transfusions over time, no. of patients (%) [1, 16]: 3 (0.3) no. of patients (%)
- Blood transfusions over time, Total no. of transfusions [1, 17]: 5
- Blood transfusions over time, no. of patients (%) [1, 17]: 5 (0.5) no. of patients (%)
- Blood transfusions over time, Total no. of transfusions [1, 18]: 2
- Blood transfusions over time, no. of patients (%) [1, 18]: 2 (0.2) no. of patients (%)
- progression-free-survival versus chemotherapy [2]: more effective than chemotherapy
